From patent publication US9955691B2, “Macrocyclic picolinamides as fungicides” (DOW AGROSCIENCES LLC, priority 2014, dated 2018)
Like-named read-outs stand apart in the source and are kept apart here.

Assays:
[1] = test system: Mycosphaerella graminicola; Anamorph: Septoria tritici; experiment: Fungicidal activity: Leaf Blotch of Wheat (SEPTTR); type: in vivo; conditions: Zymoseptoria tritici, wheat leaf blotch; for pest or weed control at 100 µg/mL: High Volume (100 ppm); for pest or weed control at 121.5 g/ha: Low Volume (121.5 g/H)
Method in brief: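 Compounds were dissolved in acetone, diluted with nine volumes of water containing 110 ppm Triton X-100, and sprayed to run-off on first-leaf Yuma wheat seedlings inoculated with Septoria tritici spores before or after treatment. Plants were held in a dew chamber, then a 20° C. greenhouse. Percent control was derived from disease severity relative to untreated plants.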

[2] = test system: Puccinia triticina; experiment: Fungicidal activity: Wheat Brown Rust (PUCCRT); type: in vivo; conditions: for pest or weed control at 100 µg/mL: High Volume (100 ppm); for pest or weed control at 121.5 g/ha: Low Volume (121.5 g/H)
Method in brief: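 Percent control of brown rust was derived from 0-100% severity on treated versus untreated first leaves. Yuma wheat seedlings were spray-treated to run-off (acetone/water, Triton X-100) and inoculated with P. triticina spores before or after treatment, then held overnight in dark dew at 22° C and moved to a 24° C greenhouse.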

[3] = 24 h, 1 Day Protectant, read-out: SEPTTR 1 DP disease control
[4] = 72 h, 3 Day Curative, read-out: SEPTTR 3 DC disease control
[5] = 24 h, 1 Day Protectant, read-out: PUCCRT 1 DP disease control
[6] = 72 h, 3 Day Curative, read-out: PUCCRT 3 DC disease control

Row | Compound | pest or weed control at 100 µg/mL [1, 3] [%] | pest or weed control at 100 µg/mL [1, 4] [%] | pest or weed control at 100 µg/mL [2, 5] [%] | pest or weed control at 100 µg/mL [2, 6] [%] | melting point [°C] | pest or weed control at 121.5 g/ha [1, 3] [%] | pest or weed control at 121.5 g/ha [1, 4] [%] | pest or weed control at 121.5 g/ha [2, 5] [%] | pest or weed control at 121.5 g/ha [2, 6] [%]
1 | COc1ccnc(C(=O)N[C@H]2COC[C@H](Cc3ccc(Cl)cc3)[C@@H](Cc3ccc(OC(F)(F)F)cc3)[C@H](C)OC2=O)c1O [compound 137] | < 70 | > 70 | > 70 | < 70 | 64 to 68 | – | – | – | –
2 | COc1ccnc(C(=O)N[C@H]2COC[C@H](CCc3ccccc3)[C@@H](CCc3ccccc3)[C@H](C)OC2=O)c1O [compound 113] | > 70 | > 70 | > 70 | < 70 | 52 to 56 | – | – | – | –
3 | COc1ccnc(C(=O)N[C@H]2COC[C@H](Cc3ccccc3)[C@@H](Cc3ccccc3)[C@@H](C)OC2=O)c1O [compound 111] | > 70 | < 70 | > 70 | > 70 | 201 to 204 | – | – | – | –
4 | COc1ccnc(C(=O)N[C@H]2COC[C@H](Cc3ccc(Cl)cc3)[C@@H](C3CCCC3)[C@H](C)OC2=O)c1OC(=O)C(C)C [compound 87] | – | – | – | – | 73 to 77 | > 70 | > 70 | > 70 | < 70
5 | CCC[C@H]1COC[C@H](NC(=O)c2nccc(OC)c2OC(C)=O)C(=O)O[C@@H](C)[C@@H]1Cc1ccc(F)cc1 [compound 107] | – | – | – | – | 57 to 62 | > 70 | > 70 | > 70 | > 70
6 | COc1ccnc(C(=O)N[C@H]2COC[C@H](CC3CC3)[C@@H](Cc3ccccc3)[C@H](C)OC2=O)c1O [compound 140] | > 70 | < 70 | > 70 | < 70 | 56 to 61 | – | – | – | –
7 | COc1ccnc(C(=O)N[C@H]2COC[C@H](CC3CC3)[C@@H](Cc3ccccc3)[C@H](C)OC2=O)c1OC(C)=O [compound 69] | – | – | – | – | 125 to 128 | > 70 | > 70 | > 70 | > 70
8 | COc1ccnc(C(=O)N[C@@H]2COC[C@@H](Cc3ccccc3)[C@H](COCC(C)C)[C@@H](C)OC2=O)c1OCOC(C)=O [compound 13] | > 70 | > 70 | > 70 | > 70 | 44 to 48 | > 70 | > 70 | > 70 | > 70
9 | COc1ccnc(C(=O)N[C@H]2COC[C@H](CC3CC3)[C@@H](Cc3ccccc3)[C@H](C)OC2=O)c1OCOC(C)=O [compound 68] | – | – | – | – | 41 to 45 | > 70 | < 70 | > 70 | < 70
10 | COc1ccnc(C(=O)N[C@H]2COC[C@H](CCC(C)C)[C@@H](C3CCCC3)[C@H](C)OC2=O)c1OC(C)=O [compound 91] | – | – | – | – | 57 to 62 | > 70 | > 70 | > 70 | < 70
11 | COc1ccnc(C(=O)N[C@H]2COC[C@H](Cc3ccccc3)[C@@H](COc3ccccc3)[C@H](C)OC2=O)c1O [compound 151] | > 70 | > 70 | > 70 | < 70 | 68 to 73 | – | – | – | –
12 | COc1ccnc(C(=O)N[C@H]2COC[C@H](Cc3ccccc3)[C@@H](COc3ccccc3)[C@H](C)OC2=O)c1OC(C)=O [compound 95, 2-(((3S,7R,8S,9S)-7-benzyl-9-methyl-2-oxo-8-(phenoxymethyl)-1,5-dioxonan-3-yl)carbamoyl)-4-methoxypyridin-3-yl acetate] | – | – | – | – | 70 to 74 | > 70 | > 70 | > 70 | > 70
13 | COc1ccnc(C(=O)N[C@H]2COC[C@H](Cc3ccccc3)[C@@H](c3ccccc3)[C@H](C)OC2=O)c1O [compound 132] | > 70 | > 70 | > 70 | > 70 | 185 to 190 | – | – | – | –
14 | COc1ccnc(C(=O)N[C@H]2COC[C@H](CC3CC3)[C@@H](Cc3ccccc3)[C@H](C)OC2=O)c1OCOC(=O)C(C)C [compound 70] | – | – | – | – | 37 to 41 | > 70 | > 70 | > 70 | > 70
15 | COc1ccnc(C(=O)N[C@H]2COC[C@H](CCC(C)C)[C@@H](C3CCCC3)[C@H](C)OC2=O)c1O [compound 150] | > 70 | > 70 | > 70 | > 70 | 38 to 43 | – | – | – | –
16 | C[C@H]1OC(=O)[C@@H](N)COC[C@H](Cc2ccccc2)[C@H]1Cc1ccccc1.Cl | – | – | – | – | 206 to 211 | – | – | – | –
17 | CCC[C@H]1COC[C@H](NC(=O)c2nccc(OC)c2O)C(=O)O[C@@H](C)[C@@H]1Cc1ccc(F)cc1 [compound 155] | > 70 | > 70 | > 70 | < 70 | 43 to 48 | – | – | – | –
18 | COc1ccnc(C(=O)N[C@H]2COC[C@H](Cc3ccccc3)[C@@H](Cc3ccc(OC(F)(F)F)cc3)[C@H](C)OC2=O)c1O [compound 131] | > 70 | > 70 | > 70 | > 70 | 63 to 69 | – | – | – | –
19 | COc1cccc(C[C@H]2COC[C@H](NC(=O)c3nccc(OC)c3OCOC(C)=O)C(=O)O[C@@H](C)[C@@H]2Cc2cccc(OC)c2)c1 [compound 17] | – | – | – | – | 51 to 55 | > 70 | > 70 | > 70 | < 70
